In ChEMBL document CHEMBL1151505, “Imino 1,2,3,4-tetrahydrocyclopent[b]indole carbamates as dual inhibitors of acetylcholinesterase and monoamine oxidase” (Bioorg Med Chem Lett, 1996):
“And” between values parts separate entries of the source, which are not always exact repeats. Identical values can stand only once. The source made the active and inactive calls. The rule behind the calls is not given here.

How the values were obtained:
[1] = molecular target: T1, Amine oxidase [flavin-containing] B (Homo sapiens, UniProt P27338); experiment: Compound was tested for inhibition of monoamine oxidase-B (MAO-B).
T1 sequence (P27338 whole entry): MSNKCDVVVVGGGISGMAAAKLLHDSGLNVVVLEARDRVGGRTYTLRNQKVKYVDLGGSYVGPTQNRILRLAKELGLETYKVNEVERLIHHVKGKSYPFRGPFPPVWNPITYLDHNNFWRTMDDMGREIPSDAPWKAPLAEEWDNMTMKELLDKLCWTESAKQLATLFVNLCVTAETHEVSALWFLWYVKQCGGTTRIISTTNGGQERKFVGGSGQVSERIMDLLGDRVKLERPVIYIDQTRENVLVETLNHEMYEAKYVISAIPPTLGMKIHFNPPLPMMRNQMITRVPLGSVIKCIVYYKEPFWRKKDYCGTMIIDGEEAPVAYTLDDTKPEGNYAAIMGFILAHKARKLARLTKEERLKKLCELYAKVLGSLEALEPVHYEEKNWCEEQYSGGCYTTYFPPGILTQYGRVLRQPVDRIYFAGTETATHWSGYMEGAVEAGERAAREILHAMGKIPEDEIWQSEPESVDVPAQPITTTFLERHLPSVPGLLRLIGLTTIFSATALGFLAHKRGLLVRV

[2] = molecular target: T2, Amine oxidase [flavin-containing] A (Homo sapiens, UniProt P21397); experiment: Compound was tested for inhibition of monoamine oxidase-A (MAO-A).
T2 sequence (P21397 whole entry): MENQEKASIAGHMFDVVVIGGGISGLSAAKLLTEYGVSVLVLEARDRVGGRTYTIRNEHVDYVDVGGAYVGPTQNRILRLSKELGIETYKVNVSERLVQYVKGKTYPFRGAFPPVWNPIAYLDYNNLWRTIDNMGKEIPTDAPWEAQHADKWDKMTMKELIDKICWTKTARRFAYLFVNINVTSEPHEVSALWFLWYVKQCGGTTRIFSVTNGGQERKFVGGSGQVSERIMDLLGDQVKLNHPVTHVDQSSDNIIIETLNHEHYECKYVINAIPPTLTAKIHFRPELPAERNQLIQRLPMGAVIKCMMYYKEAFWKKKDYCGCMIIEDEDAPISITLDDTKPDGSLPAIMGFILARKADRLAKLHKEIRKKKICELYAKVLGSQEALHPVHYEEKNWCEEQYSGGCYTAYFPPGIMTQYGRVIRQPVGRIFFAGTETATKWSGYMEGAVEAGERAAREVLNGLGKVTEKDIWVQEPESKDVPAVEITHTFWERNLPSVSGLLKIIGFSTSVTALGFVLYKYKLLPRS

[3] = molecular target: T3, Acetylcholinesterase (Homo sapiens, UniProt P22303); experiment: Inhibition of acetylcholinesterase.
[4] = molecular target: T1, Amine oxidase [flavin-containing] B; experiment: Compound was tested for inhibition of monoamine oxidase-B (MAO-B) at 50 mg/kg dose upon peroral administration in 1 hr time interval; format: organism-based; design: dose 50 mg/kg, route oral; conditions: po
[5] = molecular target: T2, Amine oxidase [flavin-containing] A; experiment: Compound was tested for inhibition of monoamine oxidase-A (MAO-A) at 50 mg/kg dose upon peroral administration in 48 time interval; format: organism-based; design: dose 50 mg/kg, route oral; conditions: po
[6] = molecular target: T1, Amine oxidase [flavin-containing] B; experiment: Compound was tested for inhibition of monoamine oxidase-B (MAO-B) at 50 mg/kg dose upon peroral administration in 24 hr time interval; format: organism-based; design: dose 50 mg/kg, route oral; conditions: po
[7] = molecular target: T2, Amine oxidase [flavin-containing] A; experiment: Compound was tested for inhibition of monoamine oxidase-A (MAO-A) at 50 mg/kg dose upon peroral administration in 0.5 hr time interval; format: organism-based; design: dose 50 mg/kg, route oral; conditions: po
[8] = molecular target: T3, Acetylcholinesterase; experiment: Compound was tested for inhibition of acetylcholinesterase at […] dose upon peroral administration in 0.5 hr time interval
[9] = molecular target: T2, Amine oxidase [flavin-containing] A; experiment: Compound was tested for inhibition of monoamine oxidase-A (MAO-A) at 50 mg/kg dose upon peroral administration in 4 hr time interval; format: organism-based; design: dose 50 mg/kg, route oral; conditions: po
[10] = molecular target: T2, Amine oxidase [flavin-containing] A; experiment: Compound was tested for inhibition of monoamine oxidase-A (MAO-A) at 50 mg/kg dose upon peroral administration in 1 hr time interval; format: organism-based; design: dose 50 mg/kg, route oral; conditions: po
[11] = molecular target: T2, Amine oxidase [flavin-containing] A; experiment: Compound was tested for inhibition of monoamine oxidase-A (MAO-A) at 50 mg/kg dose upon peroral administration in 24 hr time interval; format: organism-based; design: dose 50 mg/kg, route oral; conditions: po
[12] = molecular target: T1, Amine oxidase [flavin-containing] B; experiment: Compound was tested for inhibition of monoamine oxidase-B (MAO-B) at 50 mg/kg dose upon peroral administration in 4 hr time interval; format: organism-based; design: dose 50 mg/kg, route oral; conditions: po
[13] = molecular target: T3, Acetylcholinesterase; experiment: Compound was tested for inhibition of acetylcholinesterase at 50 mg/kg dose upon peroral administration in 24 hr time interval; format: organism-based; design: dose 50 mg/kg
[14] = molecular target: T3, Acetylcholinesterase; experiment: Compound was tested for inhibition of acetylcholinesterase at 50 mg/kg dose upon peroral administration in 1 hr time interval; format: organism-based; design: dose 50 mg/kg
[15] = molecular target: T1, Amine oxidase [flavin-containing] B; experiment: Compound was tested for inhibition of monoamine oxidase-B (MAO-B) at 50 mg/kg dose upon peroral administration in 48 time interval; format: organism-based; design: dose 50 mg/kg, route oral; conditions: po
[16] = molecular target: T3, Acetylcholinesterase; experiment: Compound was tested for inhibition of acetylcholinesterase at 50 mg/kg dose upon peroral administration in 4 hr time interval; format: organism-based; design: dose 50 mg/kg
[17] = molecular target: T1, Amine oxidase [flavin-containing] B; experiment: Compound was tested for inhibition of monoamine oxidase-B (MAO-B) at 50 mg/kg dose upon peroral administration in 0.5 hr time interval; format: organism-based; design: dose 50 mg/kg, route oral; conditions: po
[18] = molecular target: T3, Acetylcholinesterase; conditions: 10 mg/kg
Description: Compound was tested for inhibition of acetylcholinesterase at 10 mg/kg dose upon peroral administration in 0.5 hr time interval

[19] = molecular target: T3, Acetylcholinesterase; conditions: 10 mg/kg; remark: listed apart in the source
Description: Compound was tested for inhibition of acetylcholinesterase at 10 mg/kg dose upon peroral administration in 1 hr time interval

[20] = molecular target: T3, Acetylcholinesterase; conditions: 10 mg/kg; remark: listed apart in the source
Description: Compound was tested for inhibition of acetylcholinesterase at 10 mg/kg dose upon peroral administration in 4 hr time interval

[21] = molecular target: T3, Acetylcholinesterase; conditions: 10 mg/kg; remark: listed apart in the source
Description: Compound was tested for inhibition of acetylcholinesterase at 10 mg/kg dose upon peroral administration in 24 hr time interval

[22] = molecular target: T2, Amine oxidase [flavin-containing] A; experiment: Compound was tested for inhibition of monoamine oxidase-A (MAO-A) at 10 mg/kg dose upon peroral administration in 1 hr time interval; format: organism-based; design: dose 10 mg/kg, route oral; conditions: po
[23] = molecular target: T2, Amine oxidase [flavin-containing] A; experiment: Compound was tested for inhibition of monoamine oxidase-A (MAO-A) at 10 mg/kg dose upon peroral administration in 48 hr time interval; format: organism-based; design: dose 10 mg/kg, route oral; conditions: po
[24] = molecular target: T2, Amine oxidase [flavin-containing] A; experiment: Compound was tested for inhibition of monoamine oxidase-A (MAO-A) at 10 mg/kg dose upon peroral administration in 24 hr time interval; format: organism-based; design: dose 10 mg/kg, route oral; conditions: po
[25] = molecular target: T1, Amine oxidase [flavin-containing] B; experiment: Compound was tested for inhibition of monoamine oxidase-B (MAO-B) at 10 mg/kg dose upon peroral administration in 48 hr time interval; format: organism-based; design: dose 10 mg/kg, route oral; conditions: po
[26] = molecular target: T1, Amine oxidase [flavin-containing] B; experiment: Compound was tested for inhibition of monoamine oxidase-B (MAO-B) at 10 mg/kg dose upon peroral administration in 24 hr time interval; format: organism-based; design: dose 10 mg/kg, route oral; conditions: po
[27] = molecular target: T1, Amine oxidase [flavin-containing] B; experiment: Compound was tested for inhibition of monoamine oxidase-B (MAO-B) at 10 mg/kg dose upon peroral administration in 4 hr time interval; format: organism-based; design: dose 10 mg/kg, route oral; conditions: po
[28] = molecular target: T2, Amine oxidase [flavin-containing] A; experiment: Compound was tested for inhibition of monoamine oxidase-A (MAO-A) at 10 mg/kg dose upon peroral administration in 4 hr time interval; format: organism-based; design: dose 10 mg/kg, route oral; conditions: po
[29] = molecular target: T1, Amine oxidase [flavin-containing] B; experiment: Compound was tested for inhibition of monoamine oxidase-B (MAO-B) at 10 mg/kg dose upon peroral administration in 1 hr time interval; format: organism-based; design: dose 10 mg/kg, route oral; conditions: po
[30] = molecular target: T3, Acetylcholinesterase; conditions: 50 mg/kg
[31] = molecular target: T1, Amine oxidase [flavin-containing] B; experiment: Compound was tested for inhibition of monoamine oxidase-B (MAO-B) at 50 mg/kg dose upon peroral administration in 48 hr time interval; format: organism-based; design: dose 50 mg/kg, route oral; conditions: in vivo, po
[32] = molecular target: T3, Acetylcholinesterase; conditions: 50 mg/kg; remark: listed apart in the source
[33] = molecular target: T3, Acetylcholinesterase; conditions: 50 mg/kg; remark: listed apart in the source
[34] = molecular target: T2, Amine oxidase [flavin-containing] A; experiment: Compound was tested for inhibition of monoamine oxidase-A (MAO-A) at 50 mg/kg dose upon peroral administration in 48 hr time interval; format: organism-based; design: dose 50 mg/kg, route oral; conditions: po

T3 sequence (P22303 whole entry): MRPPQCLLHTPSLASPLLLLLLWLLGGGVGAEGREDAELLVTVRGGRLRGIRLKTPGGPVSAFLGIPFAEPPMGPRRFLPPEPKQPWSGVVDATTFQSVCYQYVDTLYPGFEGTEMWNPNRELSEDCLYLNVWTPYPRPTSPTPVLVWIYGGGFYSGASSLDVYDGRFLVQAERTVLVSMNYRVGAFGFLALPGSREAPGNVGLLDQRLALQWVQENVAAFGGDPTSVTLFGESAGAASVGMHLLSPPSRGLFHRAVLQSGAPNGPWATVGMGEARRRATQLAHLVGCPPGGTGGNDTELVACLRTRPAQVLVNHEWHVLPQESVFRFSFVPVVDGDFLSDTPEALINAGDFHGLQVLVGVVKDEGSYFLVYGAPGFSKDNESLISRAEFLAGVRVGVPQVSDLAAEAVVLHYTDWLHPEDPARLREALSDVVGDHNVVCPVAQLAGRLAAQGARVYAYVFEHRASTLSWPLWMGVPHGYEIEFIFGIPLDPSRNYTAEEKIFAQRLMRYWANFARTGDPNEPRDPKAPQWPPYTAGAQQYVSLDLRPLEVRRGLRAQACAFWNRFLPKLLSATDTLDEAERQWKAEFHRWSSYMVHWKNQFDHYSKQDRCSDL

SMILES | IC50 [1] [µM] | IC50 [2] [µM] | IC50 [3] [µM] | further results
C/N=C1/CCc2c1n(C)c1ccc(OC(=O)NC)c(Cl)c21 | > 1000 | 1.36 | 0.23 | –
CC/N=C1/CCc2c1n(C)c1ccc(OC(=O)NC)c(Br)c21 | > 1000 | 0.21 | 0.14 | inhibition at 50 mg/kg [4]: 17.2%; inhibition at 50 mg/kg [5]: 11.7%; inhibition at 50 mg/kg [6]: 17.8%; inhibition at 50 mg/kg [7]: 28.2%; inhibition [8]: 15.1%; inhibition at 50 mg/kg [9]: 48.9%; inhibition at 50 mg/kg [10]: 33.3%; inhibition at 50 mg/kg [11]: 13.1%; inhibition at 50 mg/kg [12]: 25.9%; inhibition [13]: 0.2%; inhibition [14]: 19.4%; inhibition at 50 mg/kg [15]: 9.3%; inhibition [16]: 30.9%; inhibition at 50 mg/kg [17]: 21.5%
C/N=C1/CCc2c1n(C)c1ccc(OC(=O)NC)c(Br)c21 | > 1000 | 0.65 | 0.18 | –
C/N=C1/CCc2c1n(C)c1ccccc21 | 317 | 0.92 | – | –
CCCCCCCNC(=O)Oc1ccc2c(c1)[C@]1(C)CCN(C)[C@@H]1N2C [EPTASTIGMINE] | – | – | 0.009 | inhibition [18]: 33.2%; inhibition [19]: 52.3%; inhibition [20]: 72.9%; inhibition [21]: 20.8%
C/N=C1/CCc2c1n(C)c1ccc(OC(=O)NCc3ccccc3)c(Br)c21 | > 1000 | 5.47 | 4.19 | –
C/N=C1/CCc2c1n(C)c1ccc(OC(=O)NC)cc21 | > 1000 | 13.6 | 3.36 | –
CC(C)/N=C1/CCc2c1n(C)c1ccccc21 | > 1000 | 30.8 | – | –
CC/N=C1/CCc2c1n(C)c1ccccc21 | 77.6 | 2.12 | – | –
CNC(=O)Oc1ccc2c(c1)c1c(n2C)/C(=N\CCc2ccccc2)CC1 | > 1000 | > 1000 | 0.16 | –
C/N=C1/CCc2c1n(C)c1cc(Cl)c(OC(=O)NC)cc21 | 395 | 22.5 | 0.67 | –
CCCn1c2c(c3c(Br)c(OC(=O)NC)ccc31)CC/C2=N/CC | > 1000 | > 1000 | 0.23 | –
CC/N=C1/CCc2c1n(C)c1ccc(OC(=O)NC)cc21 | > 1000 | 3.74 | 5.68 | –
COc1cc(Br)c2oc(C3CCNCC3)cc2c1 [BROFAROMINE] | 23.4 | 0.18 | – | inhibition at 10 mg/kg [22]: 52.1%; inhibition at 10 mg/kg [23]: 13.2%; inhibition at 10 mg/kg [24]: 28.7%; inhibition at 10 mg/kg [25]: 18.3%; inhibition at 10 mg/kg [26]: 22.2%; inhibition at 10 mg/kg [27]: 42.6%; inhibition at 10 mg/kg [28]: 64.2%; inhibition at 10 mg/kg [29]: 29.6%
CCC/N=C1/CCc2c1n(C)c1ccccc21 | > 1000 | 1.61 | – | –
CCCCNC(=O)Oc1ccc2c(c1Br)c1c(n2C)/C(=N\C)CC1 | 175 | 0.75 | 3.17 | –
CC/N=C1/CCc2c1n(C)c1ccc(OC(=O)NC)c(Cl)c21 | > 1000 | 0.1 | 0.16 | –
C/N=C1/CCc2c1n(C)c1ccc(OC(=O)N(C)C)c(Br)c21 | 51 | 0.54 | 0.06 | inhibition [30]: inactive; inhibition at 50 mg/kg [6]: 6.6%; inhibition at 50 mg/kg [9]: 58.8%; Inhibition [31]: 10.1% and 20.4%; inhibition at 50 mg/kg [10]: 44%; inhibition [32]: inactive; inhibition at 50 mg/kg [11]: 23.2%; inhibition [33]: inactive; inhibition at 50 mg/kg [34]: 22.3%; inhibition at 50 mg/kg [12]: 25.9%
Cn1c2c(c3ccccc31)CC/C2=N/Cc1ccncc1 | > 1000 | 113 | – | –
CCC/N=C1/CCc2c1n(C)c1ccc(OC(=O)NC)cc21 | > 1000 | 25.4 | 3.84 | –
